Our source for the melting point values is a melting point compilation (Tetko et al.; mined from patent text by program, amines drawn as free bases though some values may be those of a salt).

As usually defined, the melting point is the temperature of the solid-liquid transition.

In turn, `C[C@H](O)[C@@H](Nc1ccc(C#N)c(Cl)c1Cl)c1nnc(-c2ccccc2)o1` displayed a melting point of 156 °C.
`O=C(Nc1cccc(-c2ccnc3c(C(=O)c4cccs4)cnn23)c1)OCC(Cl)(Cl)Cl` registered a melting point of 197 to 200 °C.
As for `O=C(c1cnc2ccccc2n1)N1CC2CC2(c2ccc(Cl)cc2)C1` (configuration not stated), the melting point was in the range of 90 to 105 °C.
`CC(C)c1cccc(C(C)C)c1NC(=O)C(Cc1ccc(OCc2ccccc2)cc1)NC(=O)CC(C)(C)C` (configuration not stated) gave a melting point of 209 to 212 °C.
In the case of `Cc1ccc(-c2ccc3c(c2)C=C(C(=O)Nc2ccc(CN(C)C4CCOCC4)cc2)CC(c2ccccc2)O3)cc1` (configuration not stated), the melting point fell in the range of 178 to 179 °C.
`CN1CCC(CC(O)c2cc(-c3ccccc3)nc3ccccc23)CC1` (configuration not stated): the melting point is 208 °C.
Under `Nc1ncnc2c1c(Cl)cn2COC(O)CCO` (configuration not stated) stands 175 to 176 °C.
`CN(C)C(=O)C1=C(C(=O)Nc2ccc(Cl)cc2)CCCC1` displayed a melting point of 125 °C.
`CSc1nnc2c3ccccc3c(-c3ccccc3)nn12` showed a melting point of 220 to 221 °C.
Turning to `Cc1cc(SCCc2ccc(-c3ccc(C(F)(F)F)cc3)cc2)ccc1OCC(=O)O`, the melting point was in the range of 132 to 134 °C.
As for `O=C(CCCN1CCC(NC(=O)c2ccccc2)CC1)c1ccccc1`, the melting point was 143 to 144 °C.
In the case of `Cc1nc(N)ncc1-c1ccncc1` it was 215 to 217 °C.
Regarding `CN(C)C1=C(C#N)C(c2ccc(Cl)c([N+](=O)[O-])c2)c2ccc3ccccc3c2O1` (configuration not stated), the melting point was determined as 218 °C.
`NC(c1cc(-c2ccc(F)cc2)c(-c2ccc(F)cc2)[nH]1)(C(F)(F)F)C(F)(F)F` displayed a melting point of 88 to 89 °C.
Turning to `CC(C)(CO)CNS(=O)(=O)c1ccc(NC=C2C(=O)Nc3ccc4ncsc4c32)cc1`, the melting point was over 250 °C.
In the case of `Cn1ccnc1S(=O)(=O)C(C)(Cc1ccc(-c2ccccc2)cc1)C(=O)NO` (configuration not stated) it was 112 °C; in that of `c1ccc(C(c2ccccc2)(c2ccccc2)N2CCCC2)cc1`, 126 °C.
As to `Cn1c(CO)nc2ccc(OCc3ccccc3)nc21`, the melting point lay within 133 to 135 °C.
As for `COc1c(N=[N+]=[N-])ccnc1C#N`, the melting point was 102 °C.
Turning to `CCCCCC(C)C(C)c1cc(O)c2c(c1)OC(C)(C)C1=C2CN(CC(=O)Nc2ccc(Cl)cc2)CC1` (configuration not stated), the melting point is 159 to 160 °C.
For the compound `O=C(Nc1cccc(-c2ncnc3[nH]c(-c4ccncc4)cc23)c1)c1cccc(C(F)(F)F)c1`, the melting point was over 280 °C.
Regarding `CN(C)c1nccc(-c2cccnc2)n1`, the melting point was in the range of 230 to 241 °C.
In the case of `c1ccc2sc(=NCCN3CCOCC3)sc2c1` it was 75 to 76 °C; in that of `CCCCCCCCSc1nc(-c2ccccc2)c(-c2ccccc2)[nH]1`, 133 to 134 °C; in that of `CCN(C=O)Cc1ccc(NCCN(CC)CC)c2c(=O)c3ccccc3sc12`, 75 to 77 °C.
`CCOc1ccc(-n2nnnc2C(F)(F)F)cc1C=O`: the melting point is 87.9 to 88.4 °C.
`COc1cc(OC)cc(-c2nnc(-c3cc(OC)cc(OC)c3)o2)c1` gave a melting point of 167 to 170 °C.
As to `CN1CC(CCl)C(c2ccccc2)(c2ccccc2)C1=O` (configuration not stated), the melting point fell in the range of 120 to 122 °C.
Under `CCOC(=O)c1cc(NCc2ccccc2)c(Sc2ccccc2C)c(S(N)(=O)=O)c1` stands 166 to 167 °C.
`N#Cc1ccc(-c2csc(N3C(=O)OC[C@H]3CF)n2)cc1` showed a melting point of 195 to 196 °C.
Compound `Nc1nc(-c2cc(Cl)ccc2Cl)nc(N2CCC(O)CC2)n1` registered a melting point of 222 to 224 °C.
`OC1CSC(Oc2ccc(-c3ccncc3)nc2)C(O)C1O` (configuration not stated) gave a melting point of 248 °C.
`O=c1c2cccnc2sc(=Nc2ccc(C(F)(F)F)cc2)n1Cc1ccccc1` came in with a melting point of 126 to 128 °C.
In turn, `COC(=O)C1c2ccc(OCc3ccccc3)cc2CCN1CC(=O)N1CCC(c2ccccc2)CC1` (configuration not stated) gave a melting point of 112 to 114 °C.
With `CCn1cc(C2(c3cccc(-c4cncc(Cl)c4)c3)N=C(N)N(C)C2=O)cn1` (configuration not stated), the melting point was 205 to 210 °C.
As for `O=C1N(CO)c2cccc(Cl)c2C1(CO)c1cc2c(cc1O)OCO2` (configuration not stated), the melting point is over 210 °C.
The compound `COC(OC)c1cccc(C=Cc2cccc(-n3cccc3)c2)c1` showed a melting point of 108 to 110 °C.
Under `COC(=O)C1=C(C)NC(C)=C(C(=O)OCC2CCCO2)C1c1cccc(C#N)c1` (configuration not stated) stands 127 to 129 °C.
The compound `COc1cc(Oc2ccc(S(C)(=O)=O)nc2)cc2cc(C3=NCC(CC(N)=O)S3)[nH]c12` (configuration not stated) registered a melting point of 225 to 227 °C.
The compound `CCn1c(=O)c2[nH]c(/C=C/c3ccc4c(c3)OCCO4)nc2n(CC)c1=O` displayed a melting point of over 300 °C.
Under `CC(C)(C)c1cc(C=CC#N)cc(C(C)(C)C)c1O` stands 109 to 113 °C.
With `CON=Cc1cc(-n2c(=S)cc(C(F)(F)F)n(N)c2=O)c(F)cc1Cl`, the melting point was 172 to 174 °C.
In turn, `COC(=O)c1cc(S(C)(=O)=O)c(Nc2ccc(S(F)(F)(F)(F)F)cc2)cc1C` displayed a melting point of 106 to 109 °C.
As to `NC1=NS(=O)N=C1NCCCN(Cc1ccccc1F)c1ccccn1` (configuration not stated), the melting point was in the range of 180 to 182 °C.
For the compound `CNC(=O)Nc1nc(CC(=O)Nc2cccc(C(F)(F)F)c2)cs1`, the melting point lay in the range of 200 to 203 °C.
`Cc1nc(-c2ccc(Cl)cc2Cl)c(Br)n1C(F)F` gave a melting point of 81 to 83 °C.
`COc1cc(Br)c([N+](=O)[O-])cc1OC` came in with a melting point of 120 to 122 °C.
Turning to `O=C(O)c1ccc(OCCCO/N=C/c2ccc(C(F)(F)F)cc2)cc1NC(=O)c1ccccc1C(F)(F)F`, the melting point was 147 to 148 °C.
As for `CCC(=O)N1Cc2cnn(C)c2-c2cc(Cl)ccc21`, the melting point was 127 to 128 °C.
For the compound `Cc1cc(C=Cc2ccccc2O)on1`, the melting point fell in the range of 236 to 238 °C.
The compound `CCCNC(=O)CCn1ccc(=O)c(OCc2ccccc2)c1C` returned a melting point of 146 to 147 °C.
`COC(=O)C(C)(C)OCc1cc2cc(Cl)ccc2n1S(=O)(=O)c1ccc2sc(C)nc2c1`: the melting point lay within 132 to 134 °C.
With `Cc1cc2c3c(c1)C(=O)C(=O)N3CCC2`, the melting point was found to be 188 °C.
Under `Nc1nc2cccnc2c2c1nc(CCCO)n2CC1(O)CCOCC1` stands 237 to 238 °C.
For `O=C1C2CCCC2=Nc2ccccc2N1Cc1cccc(OCc2ccccc2)c1` (configuration not stated), the melting point lay within 120 to 122 °C.
In the case of `CCOC(=O)CCCNCc1nn2c(-c3ccc(OC)cc3)nnc2c2ccccc12` it was 103 to 105 °C; in that of `CCC1Oc2cc(C(=O)OC)ccc2NC1=O` (configuration not stated), 132 to 134 °C.
The compound `COc1ccc(C(=O)Cc2c(Cl)cncc2Cl)c2c1OCC2C` (configuration not stated) showed a melting point of 99 to 104 °C.
On to `COc1cc2c(cc1OCc1ccccc1)C(C1(c3ccccc3OC)CC1)N(C)CC2` (configuration not stated), for which the melting point turned out to be 118 °C.
In the case of `Cc1nc(N)oc1-c1cccc2ccccc12`, the melting point was 187 to 189 °C.
`Fc1cc(F)c(N=C2NCCN2)c(F)c1`: the melting point fell in the range of 148 to 150 °C.
In turn, `COC(=O)c1c(CN2CCC(S(C)(=O)=O)CC2)c(=O)c2ccc(F)cc2n1-c1ccccc1` displayed a melting point of 190 to 191 °C.
Under `Cc1cccc(C(=O)NC(NC(=NC#N)Nc2ccc(Cl)nc2)C(C)(Cl)Cl)c1` (configuration not stated) stands 145 to 146 °C; under `O=C(c1cccc(C(F)(F)F)c1)N(CCCCn1ccnc1)C1=Nc2cccc3cccc1c23`, 165 to 167 °C; under `O=C(N[C@@H](CS(=O)(=O)c1ccc(Oc2ccccc2)cc1)C(=O)NO)OCc1ccccc1`, 195 to 202 °C.
In the case of `N#CC1=CCCc2ccc(Br)cc21` it was 113 to 115 °C; in that of `Clc1ccc(-c2cc(C3CCN(Cc4cccc(Cl)c4)CC3)n[nH]2)cc1`, 134 to 136 °C; in that of `CCOc1ccc(-c2nc(CCC(=O)c3ncccc3OC)cs2)cc1OCC`, 79.2 to 79.7 °C.
In the case of `CCCCCCCCCCCCCCCCCCNP1OCC2(CO1)COP(NCCCCCCCCCCCCCCCCCC)OC2` (configuration not stated), the melting point lay in the range of 67 to 70 °C.
Consider `CCCCCCCNC(=O)Nc1ccccc1C(=O)N1CCN(c2ccccc2OC)CC1`, for which the melting point was in the range of 209 to 212 °C.
Under `Cc1ccccc1Nc1nc(Cl)nc2ccccc12` stands 192 to 194 °C; under `CCCCn1c(=O)n(CCC)c(=O)c2c3n(nc21)CCCN3`, 147 to 150 °C; under `N=c1n(Cc2ccc(F)c(F)c2)c2ccc(Br)cc2n1Cc1ccc(F)c(F)c1`, 88 to 89.5 °C.
Under `COc1cc(C(=CN(C)C)C(C)=O)ccc1OCC(O)CN1CCN(c2ccccc2C)CC1` (configuration not stated) stands 95 °C; under `CNNC(=O)Nc1ncnc2cc(OC)c(OC)cc12`, 246 to 247 °C; under `CCCCc1ccc(-c2coc(C(=O)O)cc2=O)cc1`, 193 to 195 °C.
`CS(=O)(=O)N1CCN([C@@H](CNS(=O)(=O)c2ccc(OCc3noc4ccccc34)cc2)C(=O)NO)CC1` had a melting point of 107 °C.
The compound `O=C1COC(=O)C(Cc2ccccc2)O1` (configuration not stated) showed a melting point of 64 to 65 °C.
In the case of `O=c1c2cn(Cc3ccccc3F)c3ccccc3c-2nn1-c1ccc(Cl)cc1` it was 338 to 339 °C.
In the case of `COc1ccc(CNC(=O)c2cc3c(=O)n(Cc4ccc([N+](=O)[O-])nc4)c(=O)n(C)c3s2)cc1` it was 238 to 241 °C; in that of `Cc1cccc2nc3n(c12)CC(c1ccccn1)S3` (configuration not stated), 128 to 130 °C.
In the case of `Cc1cccc(-c2[nH]c(C(C)C)nc2-c2cccc(-c3ccc(NS(=O)(=O)C4CC4)cc3F)c2)n1` it was 124 to 128 °C; in that of `C#CCCCCCCCCCCOc1cccc(C(N)=O)c1`, 106 to 108 °C.
`OCc1cnn(-c2c(Cl)cc(C(F)(F)F)cc2Cl)n1`: the melting point lay in the range of 87 to 88 °C.
In the case of `CC1(C)N=C(c2ccccc2F)c2cc(C#N)ccc2NC1=O`, the melting point turned out to be 206 °C.
For `CCOC(=O)c1ccc(CCC2CC(n3c4ccccc4c4ccccc43)c3ccccc3N2C(=O)c2ccc(OC)c(OC)c2)cc1` (configuration not stated), the melting point lay in the range of 247 to 249 °C.
In turn, `Cc1cccc(C)c1Oc1cc2c(cc1Cl)C=C(C(=O)O)C(C(F)(F)F)O2` (configuration not stated) showed a melting point of 253 to 259 °C.
